Laboratory results published in PubChem BioAssay (NCI).
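Assay format: 96-well plates, 48-hour exposure. The concentration for full growth arrest is given as TGI.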

How the values were obtained:
Experiment in all cases: DTP human tumour cell line panel, 48 h
HOP-92 NSCLC = tested on: HOP-92 NSCLC
RXF 393 renal = tested on: RXF 393 renal
KM20L2 colon = tested on: KM20L2 colon
SNB-19 CNS = tested on: SNB-19 CNS
SK-MEL-28 melanoma = tested on: SK-MEL-28 melanoma
A498 renal = tested on: A498 renal
HCT-116 colon = tested on: HCT-116 colon
TK-10 renal = tested on: TK-10 renal
SNB-78 CNS = tested on: SNB-78 CNS
OVCAR-8 ovarian = tested on: OVCAR-8 ovarian
SF-295 CNS = tested on: SF-295 CNS
UO-31 renal = tested on: UO-31 renal
MOLT-4 leukemia = tested on: MOLT-4 leukemia
OVCAR-5 ovarian = tested on: OVCAR-5 ovarian
NCI-H522 lung = tested on: NCI-H522 lung
M19-MEL melanoma = tested on: M19-MEL melanoma
CCRF-CEM leukemia = tested on: CCRF-CEM leukemia
U251 CNS = tested on: U251 CNS
UACC-62 melanoma = tested on: UACC-62 melanoma
UACC-257 melanoma = tested on: UACC-257 melanoma
ACHN renal = tested on: ACHN renal
KM12 colon = tested on: KM12 colon
A549 NSCLC = tested on: A549 NSCLC
HL-60(TB) leukemia = tested on: HL-60(TB) leukemia
DMS 114 small cell lung = tested on: DMS 114 small cell lung
SR leukemia = tested on: SR leukemia
M14 melanoma = tested on: M14 melanoma
RXF-631 renal = tested on: RXF-631 renal
NCI-H23 lung = tested on: NCI-H23 lung
EKVX NSCLC = tested on: EKVX NSCLC
NCI-H460 lung = tested on: NCI-H460 lung
HOP-62 NSCLC = tested on: HOP-62 NSCLC
HT29 colon = tested on: HT29 colon
SK-OV-3 ovarian = tested on: SK-OV-3 ovarian
IGROV1 ovarian = tested on: IGROV1 ovarian
LXFL 529 NSCLC = tested on: LXFL 529 NSCLC
SW-620 colon = tested on: SW-620 colon
SK-MEL-2 melanoma = tested on: SK-MEL-2 melanoma
NCI-H226 lung = tested on: NCI-H226 lung
SK-MEL-5 melanoma = tested on: SK-MEL-5 melanoma
MALME-3M melanoma = tested on: MALME-3M melanoma
SF-268 CNS = tested on: SF-268 CNS
LOX IMVI melanoma = tested on: LOX IMVI melanoma
XF 498 CNS = tested on: XF 498 CNS
SF-539 CNS = tested on: SF-539 CNS
OVCAR-4 ovarian = tested on: OVCAR-4 ovarian
SNB-75 CNS = tested on: SNB-75 CNS
OVCAR-3 ovarian = tested on: OVCAR-3 ovarian
RPMI-8226 leukemia = tested on: RPMI-8226 leukemia
SN12C renal = tested on: SN12C renal
COLO 205 colon = tested on: COLO 205 colon
K-562 leukemia = tested on: K-562 leukemia
DMS 273 small cell lung = tested on: DMS 273 small cell lung
786-0 renal = tested on: 786-0 renal
HCT-15 colon = tested on: HCT-15 colon

Measured: TGI

COc1ccc(C(=O)O)c2c(=O)c3cccnc3[nH]c12
> 100 µM: HOP-92 NSCLC | RXF 393 renal | KM20L2 colon | SNB-19 CNS | SK-MEL-28 melanoma | A498 renal | HCT-116 colon | TK-10 renal | SNB-78 CNS | OVCAR-8 ovarian | SF-295 CNS | UO-31 renal | MOLT-4 leukemia | OVCAR-5 ovarian | NCI-H522 lung | M19-MEL melanoma | CCRF-CEM leukemia | U251 CNS | UACC-62 melanoma | UACC-257 melanoma | ACHN renal | KM12 colon | A549 NSCLC | HL-60(TB) leukemia | DMS 114 small cell lung | SR leukemia | M14 melanoma | RXF-631 renal | NCI-H23 lung | EKVX NSCLC | NCI-H460 lung | HOP-62 NSCLC | HT29 colon | SK-OV-3 ovarian | IGROV1 ovarian

CSc1sc(=S)sc1C(=O)N(C)c1ccccc1
> 100 µM: RXF 393 renal | KM20L2 colon | SNB-19 CNS | SK-MEL-28 melanoma | LXFL 529 NSCLC | SW-620 colon | HCT-116 colon | TK-10 renal | SK-MEL-2 melanoma | NCI-H226 lung | SNB-78 CNS | SK-MEL-5 melanoma | MALME-3M melanoma | SF-268 CNS | LOX IMVI melanoma | OVCAR-8 ovarian | XF 498 CNS | SF-295 CNS | UO-31 renal | SF-539 CNS | MOLT-4 leukemia | OVCAR-4 ovarian | OVCAR-5 ovarian | NCI-H522 lung | M19-MEL melanoma | OVCAR-3 ovarian | CCRF-CEM leukemia | RPMI-8226 leukemia | SN12C renal | U251 CNS | COLO 205 colon | UACC-62 melanoma | K-562 leukemia | ACHN renal | DMS 273 small cell lung | KM12 colon | A549 NSCLC | HL-60(TB) leukemia | DMS 114 small cell lung | SR leukemia | M14 melanoma | NCI-H23 lung | EKVX NSCLC | NCI-H460 lung | HOP-62 NSCLC | 786-0 renal | HT29 colon | IGROV1 ovarian | HCT-15 colon
82.5 µM: SNB-75 CNS
